Experimental data published in patent US11191803B2, “Laminin receptor peptides for therapy” (priority 2017, dated 2021).
“And” between values parts separate entries of the source, which are not always exact repeats. Equal entries are not always repeated.

Experiments:
[1] = test system: isolated rat islet cultures; test: Glucagon secretion from collagenase-isolated rat pancreatic islet cultures (Quantikine ELISA); format: cell-based, Wistar rats; conditions: peptide 1 μg/ml; for Glucagon level, Medium plus Peptide A: RPMI 1640, 11 mmol/L glucose, 10% FCS
Procedure: Digestion of pancreatic tissue with collagenase to isolate islets causes similar disruption to the signalling molecules via disorganization of ECM components including laminin, fibronectin and collagen (Lee & Blaufox, J Nucl Med, 1985, 25:72-76) that results in similarly abnormally high glucagon secretion.
Islets from 2 Wistar rats (˜250 g) were isolated according to the method of Li et al. (Nature Protocols, 2009, 4:1649-1652) and suspended in 30 ml RPMI 1640 containing 11 mmol/L glucose and 10% FCS. One ml islet suspension was added to each well of 24-well plates. Peptide A dimer (SEQ ID NO: 3) was dissolved in HBSS at 100 μg/ml and added to wells at a final concentration of 1 μg/ml. After appropriate incubation times, samples were removed for glucagon measurements using Quantikine ELISA Immunoassay (R&D Systems).

ALS/MND patients [2] = test: Clinical data: ALSFRS-R score in ALS/MND patients treated on a named patient basis for 6 months; format: in vivo, human
Source text: Clinical data were obtained from 19 ALS/MND patients treated on a named patient basis, for a period of 6 months, with the Peptide A dimer (SEQ ID NO: 3).
Average time from diagnosis to treatment was 17.8 months and the decline rate from diagnosis to start of treatment was established for each patient, which averaged at −1.24+/−0.7 decline per month on the ALSFRS-R score. Mean ALSFRS-R score at start of treatment was 32.94+/−8.13, median score 36 (min-max 15-44).

ALS/MND patients [3] = conditions: cited from earlier work
pancreatic α-cell line = conditions: culture of a pancreatic α-cell line; cited from earlier work
ALS/MND patients [4] = conditions: 24 week treatment; mixed patient population, median ALSFRS-R score 43; cited from earlier work
ALS/MND patients [5] = conditions: over 24 weeks; mildly symptomatic group; placebo lost 7.5 points; cited from earlier work
ALS/MND patients [6] = test: Second Phase III trial of Edaravone in a selected mildly symptomatic group; conditions: 24 weeks; mildly symptomatic subgroup

## CVPSVPIQQFPTEDWS CVPSVPIQQFPTEDWS [Peptide A dimer]
[1]; 4 hours
  % Reduction of glucagon secretion vs medium alone: 31.6%
  Glucagon level, Medium plus Peptide A: 425.6 ± 14.8 pg/mL
[1]; 24 hours
  % Reduction of glucagon secretion vs medium alone: 44.8%
  Glucagon level, Medium plus Peptide A: 144.8 ± 8.8 pg/mL
[1]; 72 hours
  % Reduction of glucagon secretion vs medium alone: 55.2%
  Glucagon level, Medium plus Peptide A: 98.3 pg/mL and 98.3 ± 4.7 pg/mL
ALS/MND patients [2]; 2/19 patients
  Participants who stabilized and rose one point each on the ALSFRS-R scale, share of group: 10.5%
ALS/MND patients [2]; 19 ALS/MND patients
  % Slower Progression (actual vs predicted decline): 62% and 62.07%
ALS/MND patients [2]; 19 ALS/MND patients, actual score to time of analysis, baseline 32.94
  ALSFRS-R Score, C Actual: 29.53 +/− 8.26
ALS/MND patients [2]; 19 ALS/MND patients, predicted decline A-B = 8.99
  Actual Decline (A-C) in ALSFRS-R score: A-C = 3.41
ALS/MND patients [2]; subgroup 7 of 19 patients with faster predicted decline
  % Slower Progression (actual vs predicted decline): 76.6%
ALS/MND patients [2]; subgroup 7 of 19 patients with faster predicted decline, baseline 30.43
  ALSFRS-R Score, C Actual: 27.00 +/− 9.90
ALS/MND patients [2]; subgroup 7 of 19 patients, predicted decline A-B = 14.7
  Actual Decline (A-C) in ALSFRS-R score: A-C = 3.43

## Nc1nc2ccc(OC(F)(F)F)cc2s1 [Riluzole]
ALS/MND patients [3]
  Functional advantage: no functional advantage demonstrated

## methyl-β-cyclodextrin
Pancreatic α-cell line
  Glucagon secretion change: doubling of the glucagon secretion
  Reduction of cholesterol: approximately 60%

## CC1=NN(c2ccccc2)C(=O)C1 [Edaravone]
ALS/MND patients [4]
  Efficacy in initial Phase III trial: failed to show any efficacy
ALS/MND patients [5]
  Loss on the ALSFRS-R score: 5 points
ALS/MND patients [6]
  Slowing down of progression vs placebo: 33.3%
